According to the supplement of paper PMC10307832:

Tests used:
Test in all cases: relative viability (nuclei count vs DMSO), 5 days (fraction); higher = more cells survive
Masitinib + Pemetrexed = compound: Cc1ccc(NC(=O)c2ccc(CN3CCN(C)CC3)cc2)cc1Nc1nc(-c2cccnc2)cs1 [Masitinib] + Nc1nc2[nH]cc(CCc3ccc(C(=O)N[C@@H](CCC(=O)O)C(=O)O)cc3)c2c(=O)[nH]1 [Pemetrexed] (partner 0.2 µM)
In short: (§1)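 Values are medians from duplicate plates. Each reflects relative viability, defined as the nuclei count of treated wells over that of vehicle wells. Lung cancer cell lines in 1536-well plates were pin-tool dosed one day after seeding with one drug alone or with a fixed anchor-drug dose plus five library-drug doses (not always all listed) in √10 steps, then fixed, stained and imaged at 4× after 5 days.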

Masitinib + OSI-027 = compound: Cc1ccc(NC(=O)c2ccc(CN3CCN(C)CC3)cc2)cc1Nc1nc(-c2cccnc2)cs1 [Masitinib] + COc1cccc2cc(-c3nc([C@H]4CC[C@H](C(=O)O)CC4)n4ncnc(N)c34)[nH]c12 [OSI-027] (partner 0.5 µM)
In short: as §1

Masitinib + Lapatinib = compound: Cc1ccc(NC(=O)c2ccc(CN3CCN(C)CC3)cc2)cc1Nc1nc(-c2cccnc2)cs1 [Masitinib] + CS(=O)(=O)CCNCc1ccc(-c2ccc3ncnc(Nc4ccc(OCc5cccc(F)c5)c(Cl)c4)c3c2)o1 [Lapatinib] (partner 2 µM)
In short: as §1

[1] = compound: CC1=CC(=CC=C1)NC2=NC(=CS2)C3=CC=NC=C3 + COc1cc2c(Oc3ccc(NC(=O)C4(C(=O)Nc5ccc(F)cc5)CC4)cc3F)ccnc2cc1OCCCN1CCOCC1 [Foretinib] (partner 0.25 µM)
In short: as §1

Cell Line	relative viability (Masitinib + Pemetrexed; first compound 0.01 µM)	relative viability (Masitinib + Pemetrexed; first compound 0.03162 µM)	relative viability (Masitinib + Pemetrexed; first compound 0.1 µM)	relative viability (Masitinib + Pemetrexed; first compound 0.3162 µM)	relative viability (Masitinib + Pemetrexed; first compound 1 µM)	relative viability (Masitinib + OSI-027; first compound 0.01 µM)	relative viability (Masitinib + OSI-027; first compound 0.03162 µM)	relative viability (Masitinib + OSI-027; first compound 0.1 µM)	relative viability (Masitinib + OSI-027; first compound 0.3162 µM)	relative viability (Masitinib + OSI-027; first compound 1 µM)	relative viability (Masitinib + Lapatinib; first compound 0.01 µM)	relative viability (Masitinib + Lapatinib; first compound 0.03162 µM)	relative viability (Masitinib + Lapatinib; first compound 0.1 µM)	relative viability (Masitinib + Lapatinib; first compound 0.3162 µM)	relative viability (Masitinib + Lapatinib; first compound 1 µM)	relative viability ([1]; first compound 0.08 µM)	relative viability ([1]; first compound 0.253 µM)	relative viability ([1]; first compound 0.8 µM)	relative viability ([1]; first compound 2.53 µM)	relative viability ([1]; first compound 8 µM)
NCI-H1650	0.389	0.49	0.395	0.365	0.374	0.58	0.478	0.719	0.499	0.543	0.607	0.761	0.746	0.774	0.612	1.13	1.13	1.04	1.22	1.13
NCI-H1651	0.565	0.62	0.527	0.632	0.588	0.735	0.656	0.695	0.824	0.706	0.831	0.849	0.829	0.908	0.854	0.825	0.736	0.72	0.917	0.862
NCI-H1666	0.943	0.842	0.885	0.708	0.77	–	0.861	0.921	0.792	0.833	0.677	0.657	0.706	0.428	0.557	0.929	0.905	0.81	0.767	0.642
NCI-H1734	0.408	0.465	0.396	0.376	0.404	0.668	0.625	0.599	0.568	0.544	0.915	0.956	1.02	0.85	1	0.821	0.84	0.816	0.873	0.794
NCI-H1755	0.357	0.411	0.427	0.446	0.463	–	0.703	0.686	0.687	0.649	–	0.998	0.711	1.07	0.995	0.862	0.835	0.823	0.758	0.664
NCI-H1793	0.992	0.737	1	0.835	0.742	0.318	0.205	0.285	0.28	0.254	0.631	0.633	0.594	0.456	0.575	0.65	0.663	0.573	0.64	0.629
NCI-H1915	–	0.507	–	0.467	0.496	–	0.606	–	0.578	0.546	–	1.06	0.678	1.06	0.984	1.05	1.1	1.06	1.07	0.977
NCI-H1944	–	0.618	–	0.572	0.566	–	0.423	–	0.352	0.382	–	0.743	0.584	0.695	0.906	0.863	0.85	0.862	0.75	0.777
NCI-H1975	0.305	0.3	0.287	0.291	0.303	0.937	0.793	0.864	–	0.509	0.941	0.876	0.992	0.824	0.828	0.687	0.704	0.837	0.617	0.633
NCI-H1993	0.622	0.58	0.582	0.483	0.502	0.533	0.533	0.489	0.541	0.514	0.438	–	0.913	0.776	0.678	0.684	0.635	0.649	0.703	0.669
NCI-H2009	1	1.01	1.1	1.09	1.01	0.591	0.654	0.646	0.616	0.606	0.567	0.984	0.719	0.834	0.9	1.2	1.11	1.14	1.22	1.18
NCI-H2023	0.228	0.201	0.207	0.244	0.215	0.387	0.412	0.592	0.271	0.27	0.628	0.823	0.73	0.559	0.776	0.81	0.712	0.778	1.09	0.681
NCI-H2085	0.976	0.936	1.01	0.992	0.844	0.627	0.666	0.918	0.47	0.604	0.732	0.736	0.839	0.703	0.664	0.903	0.994	0.989	0.95	0.759
